Entries after “also recorded” stand apart in the source; their conditions may differ. Marks after values point to notes of the source that are not given here.
Assays:
Format in all cases: in vivo, human
prostaglandin E2 (PGE2) = assay: PGE2 synthesis in LPS-stimulated whole blood; conditions: for PGE2 synthesis in LPS-stimulated whole blood: mean ± SD
Method: (§1) Following a 3-week run-in period, subjects ingested either ALA, SDA, EPA supplied as ethyl esters in capsules. Intakes were 0.75 g/day for 3 weeks followed by 1.5 g/day for the subsequent 3 weeks.
(§2) Blood (4 mL) was added to heparinised tubes, bacterial lipopolysaccharide (LPS) was added (200 ng/mL), and the mixture was incubated at 37° C., 5% CO2, for 24 h. Plasma was collected and assayed for prostaglandin E2 (PGE2) by radioimmunoassay (RIA), interleukin-1β (IL-1β) and tumor necrosis factor-α (TNF-α) by ELISA, as described in Mantzioris et al., supra.

[1] = Fatty acid analysis of blood cell phospholipids and plasma lipid fractions after ingestion of test fatty acids; conditions: for DHA (% of total fatty acids), Erythrocyte phospholipid / DHA (% of total fatty acids), Plasma phospholipid / DPA (% of total fatty acids), Erythrocyte phospholipid / DPA (% of total fatty acids), Plasma phospholipid / EPA (% of total fatty acids), Monocyte / EPA (% of total fatty acids), Plasma CE / EPA (% of total fatty acids), Plasma Phospholipid / EPA (% of total fatty acids), Plasma TG / EPA (% of total fatty acids), Platelet / EPA (% of total fatty acids), Red Blood: both, human, in vivo
Text: 45 males and post-menopausal female—19–65 years of age, normolipidemic, and with a body mass index (BMI) in the range 20 to 30, were recruited. Exclusion criteria included bleeding disorders, hypertension, inflammatory disorders, active gastrointestinal diseases, chronic use of low dose aspirin, consumption of restaurant or takeaway evening meals more than twice per week, use of dietary supplements rich in n-3 or n-6 fatty acids, habitual consumption of more than 1 fish meal per month, and plasma phospholipid EPA+DHA levels>7.9% of total fatty acids (level achieved in the study group was 4.9±1.0% of total fatty acids).
as §1
At each visit, 36 mL of blood was taken by venepuncture after an overnight fast. Blood was aliquoted into various tubes for the following procedures.
Blood (20 mL) was added to tubes containing 4 mL 4.5% EDTA in water and 4 mL—6% dextran in normal saline, pH 7.0. Erythrocytes were allowed to sediment under gravity at 37° C. for 30 min. The leucocyte-rich plasma was layered onto LYMPHOPREP, density 1.077 (Nycomed Pharma, Oslo) and centrifuged at 110 g for 10 min to separate leucocytes from the platelets, which were removed. The gradient was further centrifuged at 200 g for 20 min to separate the neutrophils from mononuclear cells, which were removed.
Samples were processed for fatty acid analysis as described in Mantzioris et al., Am. J. Clin. Nutr., 72:42–8 (2000). Plasma, washed platelet and mononuclear cell pellets were stored at −80° C. Erythrocyte pellets were treated fresh with chloroform:isopropanol (2:1) and the lipid extracts stored at 4° C. Plasma, platelet and mononuclear cell pellets were extracted with chloroform:methanol. The cellular and plasma lipid extracts were fractionated by thin-layer chromatography. For the cellular extracts, the phospholipid fraction was retained and for the plasma extracts, the phospholipid, cholesterol ester, and triglyceride fractions were retained. These were transesterified by methanolysis (1% H2SO4 in methanol at 70° C. for 3 h). Fatty acid methyl esters were separated and quantified with a HEWLETT-PACKARD 6890 gas chromatograph equipped with a 50 m capillary column coated with BPX-70 (0.25 μm film thickness; SGE Pty Ltd, Victoria, Australia) (see Mantzioris et al., supra). Fatty acid standards were obtained from NuChek Prep Inc. (Elysian, Minn.) and included stearidonic acid obtained from Sigma Aldrich Pty Ltd. (Castle Hill, NSW, Australia). All organic solvents contained butylated hydroxy anisole (0.005%) as an antioxidant.

TNF-α = TNF-α synthesis in LPS-treated whole blood; conditions: mean ± SD
Method: as §1, §2

IL-1β = IL-1β synthesis in LPS-treated whole blood; conditions: mean ± SD
Method: as §1, §2

[2] = Week 3 (after 0.75 g/day for 3 weeks)
[3] = Week 6 (after 1.5 g/day for 3 weeks)
[4] = Week −3 (start of run-in, before dosing)

For CC/C=C\C/C=C\C/C=C\C/C=C\C/C=C\CCCC(=O)O [EPA, eicosapentaenoic acid], the “PGE2 synthesis in LPS-stimulated whole blood” value (prostaglandin E2 (PGE2); Week 0 (baseline)) was 4.21 ± 1.59 ng/mL, the “PGE2 synthesis in LPS-stimulated whole blood” value (prostaglandin E2 (PGE2); [2]) was 5.05 ± 2.16 ng/mL and the “PGE2 synthesis in LPS-stimulated whole blood” value (prostaglandin E2 (PGE2); [3]) was 4.46 ± 1.47 ng/mL. The “PGE2 synthesis in LPS-stimulated whole blood” value (prostaglandin E2 (PGE2); [4]) was 3.78 ± 1.95^1,2 ng/mL, the “Effect on LPS-stimulated PGE2 synthesis” value (prostaglandin E2 (PGE2); overall, either dose) was “no effect” and the “Effect on DPA concentration in the phospholipid fractions of erythrocytes and plasma” value ([1]; 0.75 g/day) was “significantly increased”. The “Effect on EPA concentration in the phospholipid fractions of erythrocytes and plasma” value ([1]; 0.75 g/day (weeks 0 to 3)) was “significantly increased”, the “Effect on DPA concentration in the phospholipid fractions of erythrocytes and plasma” value ([1]; 1.5 g/day) was “significantly increased; also recorded: elevated” and the “Effect on EPA concentration in the phospholipid fractions of erythrocytes and plasma” value ([1]; 1.5 g/day (weeks 3 to 6)) was “significantly increased; also recorded: elevated”. The “DHA (% of total fatty acids), Erythrocyte phospholipid” value ([1]; 0 week) was 4.62 ± 0.69^b % of total fatty acids, the “DHA (% of total fatty acids), Plasma phospholipid” value ([1]; 0 weeks) was 3.75 ± 0.77^ab % of total fatty acids and the “DPA (% of total fatty acids), Erythrocyte phospholipid” value ([1]; 0 weeks) was 2.81 ± 0.24^a % of total fatty acids. For the same compound, the “DPA (% of total fatty acids), Plasma phospholipid” value ([1]; 0 weeks) was 1.34 ± 0.22^a % of total fatty acids, the “EPA (% of total fatty acids), Monocyte” value ([1]; 0 weeks) was 0.52 (0.11)a % of total fatty acids and the “EPA (% of total fatty acids), Plasma CE” value ([1]; 0 weeks) was 1.02 (0.20)a % of total fatty acids. The “EPA (% of total fatty acids), Plasma Phospholipid” value ([1]; 0 weeks) was 1.04 (0.23)a % of total fatty acids, the “EPA (% of total fatty acids), Plasma TG” value ([1]; 0 weeks) was 0.27 (0.09)a % of total fatty acids and the “EPA (% of total fatty acids), Platelet” value ([1]; 0 weeks) was 0.45 (0.09)a % of total fatty acids. For the same compound, the “EPA (% of total fatty acids), Red Blood” value ([1]; 0 weeks) was 0.81 (0.14)^a % of total fatty acids, the “EPA (% of total fatty acids), Monocyte” value ([1]; 3 weeks) was 1.38 (0.35)b1 % of total fatty acids and the “EPA (% of total fatty acids), Plasma CE” value ([1]; 3 weeks) was 2.95 (0.74)b1 % of total fatty acids. The “EPA (% of total fatty acids), Plasma Phospholipid” value ([1]; 3 weeks) was 2.71 (0.71)b1 % of total fatty acids, the “EPA (% of total fatty acids), Plasma TG” value ([1]; 3 weeks) was 0.73 (0.20)b1 % of total fatty acids and the “EPA (% of total fatty acids), Platelet” value ([1]; 3 weeks) was 1.08 (0.26)b1 % of total fatty acids. The “EPA (% of total fatty acids), Red Blood” value ([1]; 3 weeks) was 1.60 (0.31)^b1 % of total fatty acids, the “EPA (% of total fatty acids), Monocyte” value ([1]; 6 weeks) was 2.25 (0.74)c1 % of total fatty acids and the “EPA (% of total fatty acids), Plasma CE” value ([1]; 6 weeks) was 4.53 (1.31)c1 % of total fatty acids. For the same compound, the “EPA (% of total fatty acids), Plasma Phospholipid” value ([1]; 6 weeks) was 4.48 (1.35)c1 % of total fatty acids, the “EPA (% of total fatty acids), Plasma TG” value ([1]; 6 weeks) was 1.23 (0.47)c1 % of total fatty acids and the “EPA (% of total fatty acids), Platelet” value ([1]; 6 weeks) was 1.68 (0.43)c1 % of total fatty acids. The “EPA (% of total fatty acids), Red Blood” value ([1]; 6 weeks) was 2.56 (0.65)^c1 % of total fatty acids, the “DHA (% of total fatty acids), Erythrocyte phospholipid” value ([1]; -3 week) was 5.02 ± 0.89^a1,2 % of total fatty acids and the “DHA (% of total fatty acids), Plasma phospholipid” value ([1]; -3 weeks) was 3.97 ± 1.06^a % of total fatty acids. The “DPA (% of total fatty acids), Erythrocyte phospholipid” value ([1]; -3 weeks) was 2.92 ± 0.45^a1,2 % of total fatty acids, the “DPA (% of total fatty acids), Plasma phospholipid” value ([1]; -3 weeks) was 1.31 ± 0.29^a % of total fatty acids and the “EPA (% of total fatty acids), Monocyte” value ([1]; -3 weeks) was 0.66 (0.32)^a % of total fatty acids. The “EPA (% of total fatty acids), Plasma CE” value ([1]; -3 weeks) was 1.03 (0.34)^a % of total fatty acids, the “EPA (% of total fatty acids), Plasma Phospholipid” value ([1]; -3 weeks) was 1.10 (0.40)^a % of total fatty acids and the “EPA (% of total fatty acids), Plasma TG” value ([1]; -3 weeks) was 0.31 (0.15)^a % of total fatty acids. For the same compound, the “EPA (% of total fatty acids), Platelet” value ([1]; -3 weeks) was 0.44 (0.12)^a % of total fatty acids, the “EPA (% of total fatty acids), Red Blood” value ([1]; -3 weeks) was 0.85 (0.16)^a % of total fatty acids and the “Effect on tissue levels of DHA (FIG. 1)” value ([1]; erythrocytes and plasma phospholipids, 1.5 g/day) was “decreased”. For the same compound, the “Change in erythrocyte DHA” value ([1]; higher dose (1.5 g/day)) was “slight, but statistically significant decrease”, the “TNF-α synthesis in LPS-treated whole blood” value (shortened to “TNF-α synthesis”) (TNF-α; Week 0 (baseline)) was 38.9 ± 12.5^a ng/mL and the “TNF-α synthesis” value (TNF-α; [2]) was 32.0 ± 11.8^ab ng/mL. The “TNF-α synthesis” value (TNF-α; [3]) was 27.6 ± 10.6^b ng/mL, the “TNF-α synthesis” value (TNF-α; [4]) was 36.6 ± 16.53^a1,2 ng/mL and the “IL-1β synthesis in LPS-treated whole blood” value (shortened to “IL-1β synthesis”) (IL-1β; Week 0 (baseline)) was 92.0 ± 25.4^a ng/mL. For the same compound, the “IL-1β synthesis” value (IL-1β; [2]) was 75.3 ± 27.6^b ng/mL, the “IL-1β synthesis” value (IL-1β; [3]) was 73.5 ± 16.4^b ng/mL and the “IL-1β synthesis” value (IL-1β; [4]) was 93.1 ± 26.8^a1,b ng/mL.
